Measurements taken from patent publication US20240124714A1, “NEAR INFRARED DYES FOR BIOLOGICAL IMAGING AND OPTOELECTRONIC DEVICES” (Mississippi State University, priority 2022, published 2024).

Experiments:
[1] = Stability of the dye against glutathione (change in absorption at 880 nm); assay type: in vitro ADME; settings: 17 μM dye, 40% DMSO/60% PBS, 10 mM reduced glutathione, after 30 min
Procedure: (§1) FIGS. 3A-3B show absorption studies depicting the stability of XanthCR-880 (20 μM) to the treatment of glutathione (10 mM) (FIG. 3A) and esterase (5 units) (FIG. 3B).
The XanthCR-880 dye was also shown to have excellent stability. The stability of XanthCR-880 dye was tested against glutathione, which is a potential reducing agent in biological media. The XanthCR-880 dye (17 μM) was prepared in 40% DMSO/60% PBS solution with 10 mM reduced glutathione and evaluated the change in the maximum absorption at 880 nm. The 10 mM concentration of reduced glutathione was selected to reflect the highest reported levels found in the body (i.e., liver). There was no change observed in the absorbance of the dye after 30 min.

[2] = Absorption spectra (maximum absorption wavelength); assay type: physicochemical
Procedure: All chemicals and solvents were purchased from commercial suppliers and used without further purification unless other-wise specified. ^1H NMR (500 MHz) and ^13C NMR ([…]) spectra were recorded in deuterated solvents on a Bruker ADVANCE 500 NMR Spectrometer. J values are expressed in Hz and quoted chemical shifts are in ppm downfield from tetramethylsilane (TMS) reference using the residual protonated solvents as an internal standard. The signals have been designated as follows: s (singlet), d (doublet), t (triplet), m (multiplets). All the ^13C NMR are proton decoupled. High resolution mass spectra (HRMS) were determined on Broker-micrOTOF-Q II Mass Spectrometer. Concentrations are given in μM. Absorption spectra were acquired using a Cary 5000 UV-Vis-NIR spectrophotometer in a 1 cm quartz cell.
The IR spectrums of the closed (Compound 3) and opened (XanthCR-880) forms of the dye are very distinct. The IR spectrums were obtained in dichloromethane (DCM) and dimethyl sulfoxide (DMSO) (FIG. 2). The maximum absorption wavelength (λabs) of the closed form (Compound 3) is 372 nm. However, when the dye was trapped in the opened form as the ethyl ester (XanthCR-880), the λabs shifted to 880 nm in DCM and 890 nm in DMSO, both of which are at the edge of the NIR I region and trail into the NIR II region.

porcine liver esterase = test: Stability in the presence of esterase (absorbance); assay type: in vitro ADME; settings: room temperature, 30 min
Procedure: as §1
(§2) The XanthCR-880 dye was evaluated for its compatibility as a PA contrast agent in chloroform (FIG. 3C) and PBS buffer and observed that the strongest intensity (XPA) was at 890 nm and 865 nm, respectively.

[3] = Fluorescence (fluorescent quantum yield attempt); assay type: physicochemical; settings: attempts to determine the fluorescent quantum yield
Excerpt: Fluorescence spectra were acquired using a custom-built setup with discrete excitation wavelengths ranging from 226 nm to 1059 nm with a temperature range from 4.2 K to 300 K using a liquid He bath cryostat. Alternatively, a Horiba QuantaMaster 8075-21 spectrofluorometer with xenon lamp excitation and liquid nitrogen cooled indium gallium arsenide solid state detector could be used. […] excitation was chosen to coincide with a Xe emission peak.

[4] = Photoacoustic spectrum (PA contrast agent compatibility); assay type: physicochemical
Procedure: Photoacoustic A imaging was performed on an iThera Medical MSOT inVision 128 tomographer.
as §2

[5] = Photobleaching under continuous irradiation; assay type: physicochemical; settings: continuous irradiation at λPA for 60 min; 20 μM in CHCl3
Excerpt: Ideally PA contrast agents are photostable. When PA contrast agent are used in studies, they may be subjected to multiple imaging sessions, and as such are ideally resistant to photobleaching.

| change in the absorbance of the dye (maximum absorption at 880 nm) [1] | maximum absorption wavelength (λabs) ([2]; in DCM) [nm] | maximum absorption wavelength (λabs) ([2]; in DMSO) [nm] | absorption maximum ([2]; solvent not stated) [nm] | change in the absorbance (porcine liver esterase) | wavelength of strongest photoacoustic intensity (λPA) ([4]; in PBS buffer) [nm] | wavelength of strongest photoacoustic intensity (λPA) ([4]; in chloroform (CHCl3), 20 μM) [nm] | decrease of PA signal (photobleaching) [5] [%] | maximum absorption wavelength (λabs) ([2]; closed form, spectra obtained in DCM and DMSO, solvent of this value not stated) [nm] | Compound | fluorescence [3] |
| --- | --- | --- | --- | --- | --- | --- | --- | --- | --- | --- |
| no change | 880 | 890 | 880 | no significant change | 865 | 890 | 45 |  | CCOC(=O)c1ccccc1C1=c2cc/c(=C3/C=CC(=[N+]4CCCCC4)S3)cc2Oc2cc(-c3ccc(N4CCCCC4)s3)ccc21.[Cl-] [XanthCR-880, 1-{5-[(3E)-9-[2-(Ethoxycarbonyl)phenyl]-6-[5-(piperidin-1-yl)thiophen-2-yl]-3H-xanthen-3-ylidene]-2,5-dihydrothiophen-2-ylidene}-1λ5-piperidin-1-ylium chloride] | sufficient fluorescence for brightness imaging |
|  |  |  |  |  |  |  |  | 372 | O=C1OC2(c3ccc(-c4ccc(N5CCCCC5)s4)cc3Oc3cc(-c4ccc(N5CCCCC5)s4)ccc32)c2ccccc21 [Compound 3] |  |
